Test results taken from patent US8703424B2, “Predicting human developmental toxicity of pharmaceuticals using human stem-like cells and metabolomics” (Stemina Biomarker Discovery, Inc., priority 2010, dated 2014).
Like-named read-outs stand apart in the source and are kept apart here.

What was measured:
WA09 hESCs = assay: Random forest prediction of teratogenicity from metabolomics of spent media of dosed hESCs; format: cell-based, human; details: for Predicted teratogenicity (random forest statistical model): blind study, model trained on TS1, 142 mass features, circulating dose
Description: WA09 hESCs, obtained from WiCell Research Institute (NIH National Stem Cell Bank, Madison, Wis.) were cultured in 6-well plates on Matrigel (BD Biosciences, San Jose, Calif.), in mTeSR1 medium (Stem Cell Technologies, Vancouver, BC) incubated at 37° C. under 5% CO2 in a Thermo Electron Form a Series II Water Jacket CO2 Incubator. hESCs were passaged every three or four days at a 1:3 or 1:6 seeding density for routine culture conditions. For dosing experiments, hESCs were passaged at a low density of 1:10 or 1:12 so that they would not require passaging during the […] dosing protocol. To passage hES cells, the StemPro® EZPassage™ disposable stem cell passaging tool (Invitrogen, Carlsbad, Calif.) was used to detach the cells from the wells. Detached cells were removed with a pipette and distributed to new Matrigel plates.
These medium controls provided baseline mass spectral data.
The 2.5 mL of spent media per well from Example 1 was added to 1.67 mL acetonitrile to make a 40% acetonitrile solution. The acetonitrile acts to “quench” the spent media sample, slowing or halting many metabolic processes and aiding in precipitation of cellular proteins. Samples were either stored at −80° C. for later analysis, or for immediate analysis, 250 μL of the quenched solution was mixed with 250 μL of water, to a final concentration of 20% acetonitrile, then added to a 3 kDa molecular weight cut-off filter spin column (Microcon YM-3 Centrifugal Filter, Millipore, Billerica, Mass.). Each sample was then centrifuged in an IEC CL31R Multispeed Centrifuge (Thermo Scientific, Waltham, Mass.) at 13,000×g at 4° C. for 200 minutes. Following centrifugation, the flow-through was saved then dried for several hours in a Savant High Capacity Speedvac Plus Concentrator. The concentrated sample was then dissolved in 50 μL of 0.1% formic acid prior to LC-MS analysis.
5 μl of each sample was injected.
Following LC-MS, chromatograms were inspected for reproducibility. LC-MS runs with total ion counts that vary by more than 25% were repeated to ensure that samples could be accurately compared. These runs were then used to create mass features that correspond to molecules detected across the different LC-MS runs. Mass features were extracted from the LC-MS data using MassHunter Qualitative Analysis software (Agilent Technologies). The following criteria were used as general guidelines, however some flexibility and optimization was needed. m/z values within the range of 75-1500, with a charge of +1 or −1, and a centroid height greater than 1000 were used to generate “mass features.” The mass peaks that pass these criteria were used to fit isotope and adduct (Na^+, K^+, and NH4^+) patterns corresponding to individual molecules, and to establish the abundance of each mass feature. The abundance is calculated by MassHunter software as the sum of the isotopic and adduct peaks that correspond to a single molecular feature. After data deconvolution, mass features showing at least two ions (e.g. (M^+H)^+ and (M^+H)^++1 or (M^+H)^+ and (M^+Na)^+) and an abundance value greater than 50000 for positive-ion mode data and 10000 in negative-ion mode data were included in the data set used for binning of the mass features.
Following feature selection by MassHunter, the data was further preprocessed by MassProfiler (Agilent) software which aligns mass features across multiple LC-MS data files. Mass features were generated for data from each drug treatment experiment (dosed and control) using the default alignment settings in MassProfiler with the requirement that a feature be present in at least 80% of the samples in one treatment. The mass feature datasets for each drug treatment experiment were further processed in a global manner using custom analysis scripts executed in the R statistical software environment. […]

hESCs = assay: Arginine / ADMA fold change ratio (integrated EICs) in dosed hESCs vs controls; details: for Arg fold change/ADMA fold change: EIC areas, controls vs. dosed
Description: All tested chemicals were purchased from Sigma-Aldrich (St. Louis, Mo.). Cells were dosed with drugs at a concentration equivalent to their published serum circulating therapeutic dosages. Dosing was performed on hESCs in 6-well plates in triplicate, i.e. three wells per plate. The plates were dosed in triplicate, so there were a total of nine dosed wells. In parallel, there were nine “control” wells, in which hESCs were cultured with mTeSR1 containing no drug, and three wells containing Matrigel with mTeSR1 medium without hESCs that served as medium controls. Lastly, three wells of dosed medium controls were prepared, containing Matrigel, mTeSR1 and drug, but no hESCs (FIG. 1). These medium controls provided baseline mass spectral data. On the first day of dosage, the determined concentration of drug was dissolved in mTeSR1, and then 2.5 mL of this solution was added to each dosed well of hESCs. Each day, for four days, the medium was removed and new dosed medium was added. On the fourth day, the medium was removed and added to acetonitrile to make a 40% acetonitrile solution, as outlined in the Sample Preparation section below.
Mass spectrometry was performed using an Agilent QTOF LC/MS system consisting of a G6520AA QTOF high resolution mass spectrometer capable of exact mass MS and MS/MS. In order to facilitate separation of small molecules with a wide range of polarity and to allow increased retention of hydrophilic species, Hydrophilic Interaction Liquid Chromatography (Alpert 1990) was employed. Each sample was run for 30 minutes with the gradient shown in Table 3 at a flow rate of 0.5 mL/min, using 0.1% formic acid in water (Solvent A) and 0.1% formic acid in acetonitrile (Solvent B). Electrospray ionization was employed using a dual ESI source, with an Agilent isocratic pump continuously delivering an internal mass reference solution into the source at approx. 0.01 mL/min. The mass range of the instrument was set to 100-1700 Da. A Phenomenex Luna HILIC column with dimensions 3×100 mm 3 μm particle size was used and maintained at 30° C. 5 μl of each sample was injected. Data acquisition was performed with Agilent MassHunter using high-resolution exact mass conditions.
Valproate is known to cause neural tube defects (DiLiberti et al. 1984) while nitric oxide synthase activity is essential for neural tube closure (Nachmany et al. 2006).

[1] = test system: WA09 human embryonic stem (hES) cells; assay: PLS-DA prediction of teratogenicity from secretome of treated hES cells (Example 9); details: DevTox pharmaceutical
Description: These included 11 known teratogens and 11 known non-teratogens. The current model is based on the mean fold change (treatment versus its associated intra-experimental control) of 15 metabolites common among the secretome of hES cells treated with pharmaceutical agents and unknown chemical compounds.

[2] = high dose (H = 10x circulating dose)
[3] = low dose (L = 0.1x circulating dose)

| Arg/ADMA Prediction (hESCs) | Structure (SMILES) | Classification by the refined random forest model (FIG. 3) (WA09 hESCs; 18-feature model, 26 drug treatment experiments) | Predicted teratogenicity (random forest statistical model) (WA09 hESCs) | Arg fold change/ADMA fold change (hESCs) | % Non (PLS-DA class probability non-teratogen) [1, 2] | % Ter (PLS-DA class probability teratogen) [1, 2] | Confidence (difference between class probabilities) [1, 2] | Prediction [1, 2] | % Non (PLS-DA class probability non-teratogen) [1, 3] | % Ter (PLS-DA class probability teratogen) [1, 3] | Confidence (difference between class probabilities) [1, 3] | Prediction [1, 3] | Outcome of the Arg/ADMA metrics for teratogenicity (hESCs) | Arg/ADMA Prediction (hESCs; from fold change ratio) |
| --- | --- | --- | --- | --- | --- | --- | --- | --- | --- | --- | --- | --- | --- | --- |
| Ter | CC1=C(/C=C/C(C)=C/C=C/C(C)=C\C(=O)O)C(C)(C)CCC1 [Accutane] | misclassified as non-teratogens | Non | 0.55 | 0.3 | 0.7 | 0.4 | Ter | 0.33 | 0.67 | 0.34 | Ter | – | – |
| Ter | CCCCc1oc2ccccc2c1C(=O)c1cc(I)c(OCCN(CC)CC)c(I)c1 [Amiodarone] | – | Ter | 1.64 | – | – | – | – | – | – | – | – | – | – |
| Ter | O=C1O[C@H]([C@@H](O)CO)C(O)=C1O [Ascorbic Acid] | – | – | 1.28 | 0.57 | 0.43 | 0.14 | Non | 0.57 | 0.43 | 0.14 | Non | false positives for teratogenicity | – |
| – | CC(=O)Oc1ccccc1C(=O)O [Aspirin] | – | – | 1.07 | – | – | – | – | – | – | – | – | – | – |
| – | Cn1c(=O)c2c(ncn2C)n(C)c1=O [Caffeine] | – | – | – | 0.53 | 0.47 | 0.06 | – | 0.58 | 0.42 | 0.16 | – | – | – |
| – | CN(C)CCOC(c1ccccc1)c1ccccc1 [Diphenhydramine] | – | – | – | 0.73 | 0.27 | 0.46 | Non | 0.76 | 0.24 | 0.52 | Non | – | – |
| – | Nc1nc2ncc(CNc3ccc(C(=O)N[C@@H](CCC(=O)O)C(=O)O)cc3)nc2c(=O)[nH]1 [Folic Acid] | – | – | 1.08 | 0.59 | 0.41 | 0.18 | Non | 0.59 | 0.41 | 0.18 | Non | – | – |
| – | NNC(=O)c1ccncc1 [Isoniazid] | – | – | 0.94 | 0.59 | 0.41 | 0.18 | Non | 0.76 | 0.24 | 0.52 | Non | – | – |
| – | N[C@@H](Cc1cc(I)c(Oc2cc(I)c(O)c(I)c2)c(I)c1)C(=O)O [Levothyroxine] | – | – | 1.03 | 0.59 | 0.41 | 0.18 | Non | 0.69 | 0.31 | 0.38 | Non | – | Non (Smaller fold change ratios (between 0.9 and 1.1) show a good correlation with non-teratogens) |
| – | CC1(C)S[C@@H]2[C@H](NC(=O)Cc3ccccc3)C(=O)N2[C@H]1C(=O)O [Penicillin G] | – | – | 0.96 | – | – | – | – | – | – | – | – | – | Non (Smaller fold change ratios (between 0.9 and 1.1) show a good correlation with non-teratogens) |
| – | CC1(C)S[C@@H]2[C@H](NC(=O)Cc3ccccc3)C(=O)N2[C@H]1C(=O)O [PenicillinG] | – | – | – | 0.57 | 0.43 | 0.14 | Non | 0.55 | 0.45 | 0.1 | Non | – | – |
| Ter | CC1=C(/C=C/C(C)=C/C=C/C(C)=C/C(=O)O)C(C)(C)CCC1 [Retinoic Acid] | – | – | 0.48 | – | – | – | – | – | – | – | – | – | – |
| – | CC1=C(/C=C/C(C)=C/C=C/C(C)=C/C(=O)O)C(C)(C)CCC1 [RetinoicAcid] | – | – | – | 0.3 | 0.7 | 0.4 | Ter | 0.3 | 0.7 | 0.4 | Ter | – | – |
| – | O=C1NS(=O)(=O)c2ccccc21 [Saccharin] | – | – | – | 0.8 | 0.2 | 0.6 | Non | 0.75 | 0.25 | 0.5 | Non | – | – |
| – | CCCC(CCC)C(=O)O [VPA] | – | – | – | 0.34 | 0.66 | 0.32 | Ter | 0.43 | 0.57 | 0.14 | Ter | – | – |
